Source: patent US9557319B2, “Cell-based arrays, methods of making, and methods of using” (University of Florida Research Foundation, Inc., priority 2010, dated 2017)

Columns and labels:
HCT116 cells = assay: HCT116 cell number (Hoechst nuclear stain) on drug-loaded microarray; format: cell-based, human
Text: The following figures (FIGS. 5.1 to 5.4) are micrographs taken from drug-eluting cellular microarrays, manufactured as described herein. The images are taken from individual cellular islands from the same array under various drug-loading conditions over a period of three days. HCT116 cells are nuclear stained with Hoechst for easy visibility. […] The water phase for this experiment was loaded with azide at various concentrations in addition to a control with no drug loaded. Azide is a useful probe reagent, mutagen, and preservative. Azide inhibits cytochrome oxidase by binding irreversibly to the heme cofactor in a process similar to the action of carbon monoxide. As such, it is expected to induce necrosis in cells at physiologically relevant doses.
To establish microarray fidelity, microarrays were manufactured as described above. HCT116 cells were then seeded over microarrays and incubated for 24 or 72 h. Microarrays were fixed in 4% paraformaldehyde and stained with Hoechst 34580 dye.
Camptothecin-loaded microarrays were stained with Annexin V (BD Pharminigen), fixed in 4% paraformaldehyde, and placed in PBS with Hoechst dye 34580 (Invitrogen, USA) for 30 min. Azide-loaded microarrays were fixed with 4% paraformaldehyde and incubated with PBS containing Hoechst 34580 dye. Finally, nutlin-3a-loaded microarrays were fixed with 4% paraformaldehyde, stained with BrdU (BD Bioscience, San Jose, Calif.), and incubated in PBS containing Hoechst 34580 dye. All arrays were mounted with Fluoro-Gel (Electron Microscope Sciences, Hatfield, Pa.) and imaged using an Axiovert 200M microscope (Carl Zeiss, Oberkochen, Germany). Analysis was performed with Axiovision (Carl Zeiss, Oberkochen, Germany) by quantifying, in each drug-eluting island, the area of fluorescence and reported as relative fluorescence intensity (RFI).

[1] = Loading efficiency of small molecules in microarrayed EVA films; format: physicochemical
Description: To embed molecules into the polymer matrix, they were first dissolved in an appropriate solvent, depending on their respective hydrophobicity. A stock solution of azide (99%, Acros), a hydrophilic molecule, was dissolved in dH2O whereas Nutlin-3a (EMD Chemicals, Gibbstown, N.J.) and camptothecin (Sigma), both hydrophobic molecules, were dissolved in DMSO. Dissolved drugs were then added to 5% EVA at a 1:10 ratio of solvent:EVA. Prior to printing, polymer mixtures were vortexed for 30 s and then homogenized for 1 min before being loaded onto the source plate of the robotic mini-arrayer.
To determine the loading efficiency of factors, polymer formulations were made as described above. Films derived from 100 μl EVA loaded with factors were then made on glass coverslips and allowed to dry overnight under vacuum. Films were removed from the glass substrates and weighed. Films were washed briefly with PBS before being placed in 1 ml toluene to dissolve the polymer. Samples were then analyzed using a Nanodrop-ND-1000 spectrophotometer. Standard curves were generated for each factor, and loading efficiency was calculated as the percent of drug embedded in the polymer compared to the theoretical drug concentration.

In the case of [N-]=[N+]=[N-] [Azide], the “response of HCT116 cell density on azide-loaded ELVAX islands” value (HCT116 cells; 37.5 and 75 mM azide, 5-68 h) was “dose-dependent response”, the “cell counts of HCT116 on drug-loaded film after attachment” value (HCT116 cells; 1 h after seeding, across loading concentrations, ANOVA p=0.490) was “No statistical difference” and the “HCT116 cell numbers vs drug loading concentration” value (HCT116 cells; after 24 h) was “decreased with increasing loading concentrations”. The “Loading efficiency (%)” value [1] was 73 +/− 8%.
